Data reported in patent US10968264B2, “Cyclic peptide tyrosine tyrosine compounds as modulators of neuropeptide Y receptors” (priority 2016, dated 2021).
Numbered stars: 1 amine (or outer) side, 2 acyl side, 3 side chain; on linkers, the order of the positions; unused ones are H or OH. Bridge positions count the residues as written; N and C are the ends. Side chains are listed from the residue outwards. Peptide text beside a SMILES is read from it. * marks the point of attachment. Argψ(CH2NH)TyrNH2 = N=C(N)NCCC[C@@H](CN[C@@H](Cc1ccc(O)cc1)C(N)=O)N*; C18 diacid = O=C(O)CCCCCCCCCCCCCCCCC(=O)*; γGlu = O=C(O)[C@H](CCC(=O)[*:2])N[*:1]; AEEA = NCCOCCOCC(=O)O

Target: T1, human NPY2R (Homo sapiens, UniProt P49146)
T1 construct: expressed in transfected cells; host or cells: HEK cells
Experiment: Human NPY2R cAMP in vitro potency assay (hY2 assay), inhibition of forskolin-induced cAMP, LANCE FRET
Assay type: cell-based
Experimental: The method used to test the potency of PYY analogs in vitro was a cell based assay designed to measure inhibition of forskolin-induced cAMP produced by adenylate cyclase through modulation of the human NPY2R Gi-protein coupled receptor.
Cells were thawed from cryopreservation and added to 15 ml of cell media (DMEM/high glucose (Cellgro), 10% FBS (Hyclone), 1% Pen/Strep (Life Technologies), 1% L-Glutamine (Thermo Scientific), 1% Na Pyruvate (Thermo Scientific)). […] Supernatants in the assay plate were decanted. Dilutions of PYY analogs and controls were prepared in 1×HBSS (Cellgro), 5 mM HEPES (Cellgro), 0.1% BSA (PerkinElmer) and 0.5 mM 3-isobutyl-1-methylxanthine (Sigma), and 6 μL/well of each sample were added to designated wells. […] All samples were measured in triplicate. Data were analyzed using the Crucible in-house data analysis software, designed by Eudean Shaw. The unknown cAMP concentrations within each well were interpolated from the reference standards of known cAMP concentrations included within each plate.

[1] = Y2R EC50 (nM) SEQ ID NO: 2-39, human NPY2R transfected HEK cells, NTSC-PYY compound

T1 sequence (P49146 whole entry): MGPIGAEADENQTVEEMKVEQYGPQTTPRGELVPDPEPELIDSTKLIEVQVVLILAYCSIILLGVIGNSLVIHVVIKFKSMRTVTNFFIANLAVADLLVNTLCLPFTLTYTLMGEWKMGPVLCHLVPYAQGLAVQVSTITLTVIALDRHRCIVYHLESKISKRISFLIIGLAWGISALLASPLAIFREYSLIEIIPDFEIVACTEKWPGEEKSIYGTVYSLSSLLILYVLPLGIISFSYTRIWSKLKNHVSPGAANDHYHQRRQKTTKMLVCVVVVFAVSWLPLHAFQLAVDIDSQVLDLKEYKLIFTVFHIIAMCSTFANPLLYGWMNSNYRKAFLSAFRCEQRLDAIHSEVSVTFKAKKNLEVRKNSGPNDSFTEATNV

Question: `CCCCCCCCCCCCCCCC(=O)N[C@@H](CCC(=O)NCCCC[C@@H]1NC(=O)[C@H](CC(N)=O)NC(=O)[C@H](CC(C)C)NC(=O)[C@H](Cc2ccc(O)cc2)NC(=O)[C@H](C)NC(=O)[C@H](CCCNC(=N)N)NC(=O)[C@H](CC(C)C)NC(=O)[C@H](CO)NC(=O)[C@H](C)NC(=O)[C@H](Cc2ccc(O)cc2)NC(=O)[C@H](Cc2ccc(O)cc2)NC(=O)[C@H](CCCNC(=N)N)NC(=O)[C@H](CC(N)=O)NC(=O)[C@H](CC(C)C)NC(=O)[C@H](CCC(=O)O)NC(=O)[C@H](CCC(=O)O)NC(=O)[C@@H]2CCCN2C(=O)[C@H](CO)NC(=O)[C@H](C)NC(=O)[C@H](CC(=O)O)NC(=O)[C@H](CCC(=O)O)NC(=O)CNC(=O)[C@@H]2CCCN2C(=O)[C@H](C)NC(=O)[C@H](CCC(=O)O)NC(=O)[C@@H]2CCCN2C(=O)[C@H](C)NC(=O)[C@H]([C@@H](C)CC)NC(=O)c2cccc(c2)CSCC[C@@H](C(=O)N[C@H](C(=O)N[C@@H](CCCNC(=N)N)C(=O)N[C@@H](CCC(N)=O)C(=O)N[C@@H](CCCNC(=N)N)C(=O)N[C@@H](Cc2ccc(O)cc2)C(N)=O)[C@@H](C)O)NC1=O)C(=O)O` [SEQ ID NO: 21] was tested. Which EC50 [1] did it give?
Answer: The EC50 was 0.49 nM.

Question: For `CCCCCCCCCCCCCCCC(=O)N[C@@H](CCC(=O)NCCCC[C@@H]1NC(=O)[C@H](CC(N)=O)NC(=O)[C@H](CC(C)C)NC(=O)[C@H](Cc2ccc(O)cc2)NC(=O)[C@H](C)NC(=O)[C@H](CCCNC(=N)N)NC(=O)[C@H](CC(C)C)NC(=O)[C@H](CO)NC(=O)[C@H](C)NC(=O)[C@H](Cc2ccc(O)cc2)NC(=O)[C@H](Cc2ccc(O)cc2)NC(=O)[C@H](CCCNC(=N)N)NC(=O)[C@H](CC(N)=O)NC(=O)[C@H](CC(C)C)NC(=O)[C@H](CCC(=O)O)NC(=O)[C@H](CCC(=O)O)NC(=O)[C@@H]2CCCN2C(=O)[C@H](CO)NC(=O)[C@H](C)NC(=O)[C@H](CC(=O)O)NC(=O)[C@H](CCC(=O)O)NC(=O)CNC(=O)[C@@H]2CCCN2C(=O)[C@H](C)NC(=O)[C@H](CCC(=O)O)NC(=O)[C@@H]2CCCN2C(=O)[C@H](CCC(=O)O)NC(=O)[C@H]([C@@H](C)CC)NC(=O)c2cccc(c2)CSCC[C@@H](C(=O)N[C@H](C(=O)N[C@@H](CCCNC(=N)N)C(=O)N[C@@H](CCC(N)=O)C(=O)N[C@@H](CCCNC(=N)N)C(=O)N[C@@H](Cc2ccc(O)cc2)C(N)=O)[C@@H](C)O)NC1=O)C(=O)O` [SEQ ID NO: 22], which EC50 (Y2R EC50 (nM) SEQ ID NO: 2-39) is on record?
Answer: The EC50 was 4.4 nM.

Question: For `CC[C@H](C)[C@@H]1NC(=O)CCNC(=O)CSC[C@@H](C(=O)N[C@H](C(=O)N[C@H](C(=O)N[C@@H](CCCNC(=N)N)C(=O)N[C@@H](CCC(N)=O)C(=O)N[C@@H](CCCNC(=N)N)CN[C@@H](Cc2ccc(O)cc2)C(N)=O)[C@@H](C)O)C(C)C)NC(=O)[C@H](CC(N)=O)NC(=O)[C@H](CC(C)C)NC(=O)[C@H](Cc2ccc(O)cc2)NC(=O)[C@H](Cc2c[nH]cn2)NC(=O)[C@H](CCCNC(=N)N)NC(=O)[C@H](CC(C)C)NC(=O)[C@H](CO)NC(=O)[C@H](C)NC(=O)[C@H](Cc2ccc(O)cc2)NC(=O)[C@H](Cc2ccc(O)cc2)NC(=O)[C@H](CCCNC(=N)N)NC(=O)[C@H](CC(N)=O)NC(=O)[C@H](CC(C)C)NC(=O)[C@H](CCC(=O)O)NC(=O)[C@H](CCC(=O)O)NC(=O)[C@@H]2CCCN2C(=O)[C@H](CO)NC(=O)[C@H](C)NC(=O)[C@H](CCCCNC(=O)COCCOCCNC(=O)COCCOCCNC(=O)CC[C@H](NC(=O)CCCCCCCCCCCCCCCCC(=O)O)C(=O)O)NC(=O)[C@H](CCC(=O)O)NC(=O)CNC(=O)[C@@H]2CCCN2C(=O)[C@H](C)NC(=O)[C@H](CCC(=O)O)NC(=O)[C@@H]2CCCN2C(=O)[C@H](CCCCN)NC1=O` [SEQ ID NO: 68], which EC50 (Y2R EC50 (nM) SEQ ID NO: 2-39) is on record?
Answer: The EC50 was 0.27 nM.

Question: With `CC[C@H](C)[C@@H]1NC(=O)CNC(=O)CC[C@@H](C(=O)N[C@H](C(=O)N[C@H](C(=O)N[C@@H](CCCNC(=N)N)C(=O)N[C@@H](CCC(N)=O)C(=O)N[C@@H](CCCNC(=N)N)CN[C@@H](Cc2ccc(O)cc2)C(N)=O)[C@@H](C)O)C(C)C)NC(=O)[C@H](CC(N)=O)NC(=O)[C@H](CC(C)C)NC(=O)[C@H](Cc2ccc(O)cc2)NC(=O)[C@H](Cc2c[nH]cn2)NC(=O)[C@H](CCCNC(=N)N)NC(=O)[C@H](CC(C)C)NC(=O)[C@H](CO)NC(=O)[C@H](C)NC(=O)[C@H](Cc2ccc(O)cc2)NC(=O)[C@H](Cc2ccc(O)cc2)NC(=O)[C@H](CCCNC(=N)N)NC(=O)[C@H](CC(N)=O)NC(=O)[C@H](CC(C)C)NC(=O)[C@H](CCC(=O)O)NC(=O)[C@H](CCC(=O)O)NC(=O)[C@@H]2CCCN2C(=O)[C@H](CO)NC(=O)[C@H](C)NC(=O)[C@H](CCCCN)NC(=O)[C@H](CCC(=O)O)NC(=O)CNC(=O)[C@@H]2CCCN2C(=O)[C@H](C)NC(=O)[C@H](CCC(=O)O)NC(=O)[C@@H]2CCCN2C(=O)[C@H](CO)NC1=O` [SEQ ID NO: 70, [cyclo-(G2-E30), S4, K11, psi-(R35,Y36)]-PYY2-36] (HELM PEPTIDE1{G.I.S.P.E.A.P.G.E.K.A.S.P.E.E.L.N.R.Y.Y.A.S.L.R.H.Y.L.N.E.V.T.R.Q.[N=C(N)NCCC[C@@H](CN[C@@H](Cc1ccc(O)cc1)C(N)=O)N[*:1]]}$PEPTIDE1,PEPTIDE1,1:R1-29:R3$$$V2.0) as the molecule, how does the EC50 (Y2R EC50 (nM) SEQ ID NO: 2-39) read?
Answer: Its EC50 is 0.02 nM.

Question: Which EC50 [1] does the source give for `CC[C@H](C)[C@@H]1NC(=O)CNC(=O)CC[C@@H](C(=O)N[C@H](C(=O)N[C@H](C(=O)N[C@@H](CCCNC(=N)N)C(=O)N[C@@H](CCC(N)=O)C(=O)N[C@@H](CCCNC(=N)N)CN[C@@H](Cc2ccc(O)cc2)C(N)=O)[C@@H](C)O)C(C)C)NC(=O)[C@H](CC(N)=O)NC(=O)[C@H](CC(C)C)NC(=O)[C@H](Cc2ccc(O)cc2)NC(=O)[C@H](Cc2c[nH]cn2)NC(=O)[C@H](CCCNC(=N)N)NC(=O)[C@H](CC(C)C)NC(=O)[C@H](CO)NC(=O)[C@H](C)NC(=O)[C@H](Cc2ccc(O)cc2)NC(=O)[C@H](Cc2ccc(O)cc2)NC(=O)[C@H](CCCNC(=N)N)NC(=O)[C@H](CC(N)=O)NC(=O)[C@H](CC(C)C)NC(=O)[C@H](CCC(=O)O)NC(=O)[C@H](CCC(=O)O)NC(=O)[C@@H]2CCCN2C(=O)[C@H](CO)NC(=O)[C@H](C)NC(=O)[C@H](CCCCNC(=O)COCCOCCNC(=O)COCCOCCNC(=O)CC[C@H](NC(=O)CCCCCCCCCCCCCCCCC(=O)O)C(=O)O)NC(=O)[C@H](CCC(=O)O)NC(=O)CNC(=O)[C@@H]2CCCN2C(=O)[C@H](C)NC(=O)[C@H](CCC(=O)O)NC(=O)[C@@H]2CCCN2C(=O)[C@H](CO)NC1=O` [SEQ ID NO: 72] (GISPEAPGEK([AEEA-AEEA-γGlu-C18 diacid])ASPEELNRYYASLRHYLNEVTRQ-{Argψ(CH2NH)TyrNH2}; lactam N-29) here?
Answer: Its EC50 is 1.75 nM.
